According to patent publication US6514942B1, “Methods and compositions for stimulating T-lymphocytes” (The Board of Regents, The University of Texas System, priority 1995, dated 2003):

Experiments:
[1] = molecular target: T1, HLA-A2 of T2 cells (Homo sapiens, UniProt P04439, D140Y/D185E/D98H/E176V/E277Q/G131W/G231S/I119V/I121R/I166T/I218V/L300P/L318F/N151K/N90K/P208A/P217A/Q86G/Q94H/R138H/R169H/T345S); test: Reactivity of MA2.1 mAb with T2 cells after culture with peptide (immunofluorescence, FL1); format: cell-based; conditions: peptide 50 μg/ml, overnight culture in IMDM-FCS
T1 construct: cell surface expression of HLA-A2 is lower (30-40%) than in normal LBL lines transfected with HLA-A2; endogenous in cells; host or cells: T2 (transport deletion mutant) human lymphoblastoid cells, obtained from Dr. Peter Creswell

[2] = tested on: HLA-A2- CTL from donors 14 and 15; test: Presentation of peptides by HLA-A2+ transfectants to HLA-A2- CTL; format: cell-based, human; conditions: CTL induced with the same peptides
[3] = tested on: C1R:A2 and T2 cells; test: Lysis by LAK cells in presence of peptides; format: cell-based, human
Description: It is unlikely that tumor killing by 41.CD8^+ CTL reflects LAK type activity. LAK cells lyse K562 with higher efficiency than they lyse human tumors (Grimm et al., 1982). Also, both C1R:A2 and SkOV3.A2 were transfected with the same HLA-A2 plasmid expression vector. […] In separate studies, LAK cells lysed effectively both C1R:A2 and T2 cells. This lysis was not affected by C43/C84 or mutated peptides based on this sequence.

[4] = tested on: C1R:A2 cells; test: Lysis of peptide-sensitized C1R:A2 cells by CTL cultures induced in vitro with C43 and C84; format: cell-based, human; conditions: E:T 10:1, donor 51

FL1 of T2 cells stained with MA2.1 mAb [1] | Sequence | cross-presentation to HLA-A2- CTL [2] | effect on lysis by LAK cells [3] | difference between HER-2 peptide and control targets recognition ([4]; 4-hr assay) | difference between HER-2 peptide and control targets recognition ([4]; 20-hr assay)
significant increase in FL1 | ELVSEFSRV [Peptide C84, HER-2:971-979 analog, Met(P9) substituted by Val] | did not cross-present | not affected | not significant | significant
failed to significantly increase FL1 | RFRELVSEFSRMAR [Peptide C43, HER-2:968-981 14mer peptide] | did not cross-present | not affected | not significant | significant
